These results are taken from patent publication US7205411B2, “Aminopyridine derivatives as mGluR5 antagonists” (Addex Pharmaceuticals SA, priority 2003, dated 2007).

Where a name gives a salt, the structure may show the parent alone.

As to `Cc1ccc(N)c(C#Cc2cccc(Cl)c2)n1.Cl`, the melting point (commonly the temperature, or range, at which the solid turns liquid) is 195 °C (dec.).
As for `Cc1ccc(N)c(C#Cc2ccc(F)cc2)n1.Cl`, the melting point was 122 °C (dec.).
The compound `Cc1ccc(N)c(C#Cc2cccc(C#N)c2)n1.Cl` registered a melting point of 132.4 to 134 °C.
For `Cc1cc(C)c(N)c(C#Cc2cccc(Cl)c2)n1` (as salt: hydrochloride) [Example 13, (2-(3-Chloro-phenylethynyl)-4.6-dimethyl-pyridin-3-yl)amine hydrochloride], the melting point came to 204 °C.
Consider `Cc1ccc(N)c(C#Cc2cccc(F)c2)n1.Cl` [Example 3, (2-(3-Fluoro-phenylethynyl)-6-methyl-pyridin-3-yl)amine hydrochloride], for which the melting point was 199 to 200 °C (dec.).
For `COc1cccc(C#Cc2nc(C)ccc2N)c1` [Example 4, (2-(3-Methoxy-phenylethynyl)-6-methyl-pyridin-3-yl)amine], the melting point fell in the range of 165 to 166 °C.
Take `Cc1ccc(N)c(C#Cc2cc(F)cc(F)c2)n1.Cl` [Example 7, (2-(3,5-Difluoro-phenylethynyl)-6-methyl-pyridin-3-yl)amine hydrochloride]: the melting point is 212 °C (dec.).
On to `Cc1ccc(N)c(C#Cc2cncc(Cl)c2)n1.Cl` [Example 10, (2-(5-Chloro-pyridin-3-ylethynyl)-6-methyl-pyridin-3-yl)amine hydrochloride], for which the melting point is 193 °C (dec.).
